From patent US6362352B1, “F18-labeled thia fatty acids and methods of making and using the same” (Duke University, priority 1999, dated 2002)

Experiments:
[1] = PET imaging studies in patients with ischemic cardiomyopathy; assay type: in vivo; conditions: same subjects
Experimental: PET imaging studies were performed with 16F4THA in patients with ischemic cardiomyopathy. Conventional nuclear medicine perfusion scans were obtained in the same subjects.

myocardium = conditions: cited from earlier work
isolated rat hearts = assay: Tracer uptake versus palmitate beta-oxidation rate in isolated perfused rat hearts; parameters: species or system Sprague Dawley rats; conditions: Langendorff perfusion, 0.15 mM palmitate, 5 mM glucose; both normoxic (95% oxygen) and hypoxic (35% oxygen) conditions
Experimental: Model 4-thia analogs (16-[^18F]fluoro-4-thia-hexadecanoic acid and 12-[^18F]fluoro-4-thia-dodecanoic acid) were examined as tracers in isolated rat hearts. The perfusate was Krebs-Hensleit buffer with 1% albumin, 0.15 mM palmitate, and 5 mM glucose. Sprague Dawley rats (200-225 g) were fed ad libetum. The hearts were excised from pentobarbital-anesthetized animals and perused at 7 ml/min in Langendorff retrograde fashion. The perfusate was gassed with either 95% oxygen (normoxic) or 35% oxygen (hypoxic) gas mixture. The gases comprising the remaining fraction were nitrogen and carbon dioxide (5% for both). The tracer was administered as a bolus or as a pulse infusion into the isolated rat hearts. Pulse infusion allowed absolute quantification of ^18F accumulation rates that reflect the metabolic rate of the tracer in the heart. Clearance rates are measured during the washout phase of these experiments. Beta-oxidation rates of 9,10[^3H] palmitate were measured by collection of venous effluent samples and separation of titrated water.

O=C(O)CCSCCCCCCCCCCCC[18F] [Compound 16F4THA, 16-[^18F]Fluoro-4-thia-hexadecanoic acid]
quality of PET scans compared with conventional nuclear medicine perfusion scans [1]: superior quality

CCCC([18F])CCCCCCCSCCCCC(=O)O (stereo not shown) [Compound 14F6THA]
tracking of beta-oxidation of palmitate (myocardium; a number of conditions): tracks beta-oxidation of palmitate | sensitivity to inhibition of beta-oxidation in myocardium (myocardium; hypoxia with normal blood flow): insensitive

O=C(O)CCCCSCCCCCCCCCCC[18F] [Compound 17F6THA, 17-[^18F]Fluoro-6-thia-heptadecanoic acid]
correlation of beta-oxidation rates with uptake rates of the tracer (r) (isolated rat hearts): poor correlation
